# Test results taken from patent US12319967B2, “Methods and compositions for diagnosing and treating prostate cancer based on long noncoding RNA overlapping the LCK gene that regulates prostate cancer cell growth” (University of Virginia Patent Foundation, priority 2019, dated 2025).
# Entries after “also recorded” stand apart in the source; their conditions may differ. Where a SMILES comes first, the peptide text is derived from it. The star is where a group is joined. Cbz = O=C(OCc1ccccc1)*
# How the values were obtained:
# Type in all cases: cell-based, human
# HULLK = assay: qPCR of HULLK (LCK 3'UTR / exon 13) transcript levels in response to hormone and AR, p300 or Brd4 inhibition
# Experimental: (§1) FIGS. 2A through 2E illustrate that HULLK is an AR-regulated lncRNA. […] LNCaP and C42 cells were transduced with two independent shRNAs to LCK and treated with 0-1 nM R1881. RNA was collected on Day 4 and LCK transcript levels were determined using LCK primers targeting the 3′UTR. […] LNCaP and C42 cells were seeded for 48 hrs, and then, treated with 1 nM R1881 in the presence or absence of 10 μM enzalutamide. RNA was collected 24 hrs after treatment and LCK transcript levels were determined by qPCR using LCK primers targeting the 3′UTR. C4-2, DU145, and PC3 cells were seeded in CSS media for 48 hrs, and then, treated with 1 nM R1881 for 16 hrs. RNA was collected and LCK transcript levels were determined using LCK primers targeting the 3′UTR. […] FIG. 2E illustrates that Brd4 inhibition reduces the hormone induction of HULLK, n=3. LNCaP, C42, or Jurkat cells were seeded for 48 hrs in the appropriate growth media, and then, treated with 1 nM R1881 in the presence or absence of 0.3 μM A-485 or 0.1 μM JQ1. RNA was collected 24 hrs after treatment and LCK transcript levels were determined by qPCR using LCK primers targeting exon 13 or 3′UTR. PSA and TMPRSS2 transcripts were determined to verify the efficacy of p300 and Brd4 inhibition.
# FIGS. 7A and 7B illustrate the regulation of HULLK by the AR in breast cancer cells. […] LNCaP, MCF7, BT549, and MDA-MD-231 cells were seeded in the appropriate growth media, and whole cell lysates were collected 48 hrs later and blotted for AR21 and ERK1/2. […] MCF7, BT549, and MDA-MB-231 cells were seeded in CSS media for 48 hrs, and then, treated with 1 nM R1881 for 16 hrs. RNA was collected and LCK transcript levels were determined using LCK primers targeting the 3′UTR, n=3.
# Cell Culture and Reagents. LNCaP and C4-2 cells (a gift from Dr. L. W. K. Chung) were grown in DMEM:F12 (Invitrogen) with 5% Non-Heat-Inactivated serum (Gemini) and 1% Insulin-Transferrin-Selenium-Ethanolamine (ThermoFisher). CWR22Rv1 (Rv1), VCaP, PC3 (gifts from Drs. Steven Balk, Karen Knudsen, and Chung, respectively), WMPY-1 (ATCC), MCF7, BT549 and MDA-MB-231 (gifts from Dr. Amy Bouton) were grown in DMEM (Invitrogen) with 10% Heat-Inactivated serum. DU145 (a gift from Dr. Chung), PANC1 (a gift from Dr. J. Thomas Parsons), HeLa and Jurkat cells (gifts from Dr. Tim Bender) were grown in RPMI-1640 (Invitrogen) with 10% Heat-Inactivated serum. LHS cells (a gift from Dr. William Hahn) were grown in ProstaLife Epithelial Cell Medium (Lifeline). RWPE-1 (ATCC) cells were grown in Keratinocyte-Serum-Free Media (Invitrogen). For growth and RNA experiments, phenol-red free DMEM:F12 media with 5% Charcoal-Stripped Serum (CSS) (Gemini) was used.
# RNA Isolation, qPCR and ddPCR: RNA was collected using TRIzol and quantitated using a NanoDrop 2000 UV-Vis Spectrophotometer (ThermoFisher). cDNA was synthesized using Superscript IV VILO cDNA synthesis kit (Invitrogen). Quantitative real-time PCR (qPCR) was performed as previously described (17,18). Droplet digital PCR (ddPCR) was executed according to the manufacturer's protocol (Bio-Rad).
# To assess whether this lncRNA is modulated by hormone, transcript levels of this lncRNA were quantified by qPCR using 3′UTR primers in LNCaP and C4-2 cells transduced in the presence of increasing concentrations of R1881 (FIG. 2A). […] This increase was inhibited in the presence of two independent LCK shRNAs in both cell lines.
# This hormone regulation was confirmed by measuring transcript amounts in LNCaP and C4-2 cells treated with vehicle or R1881 in the presence or absence of the anti-androgen enzalutamide (FIG. 2B). As expected, there was an 8-fold and 12-fold R1881-induced increase in LCK 3′UTR transcript levels in LNCaP and C4-2 cells, respectively. […] Androgen deprivation influenced message levels negligibly in LNCaP cells, but decreased transcript amounts of this lncRNA by approximately 2.9-fold in C4-2 cells (FIG. 2B, C4-2 vehicle vs. media). […]
# [1] = test system: LNCaP, C4-2, and Rv1 cells; assay: CyQuant growth assay 7 days after viral transduction; conditions: day 7; for effect on cell growth: absence of hormone, Rv1 cells
# Description: FIG. 5A illustrates the gene structure of LCK and location of each shRNA targeting LCK. MISSION shRNAs targeting human LCK (NM_005356) and the pLKO vector control were purchased from ThermoFisher. Each shRNA was validated for efficiency of LCK or HULLK knockdown in Jurkat and PCa cells by qPCR. (C) The results of CyQuant Assay measuring DNA content as a surrogate for cell number 7 days after shRNA transduction is shown in FIG. 5C. Growth was compared to untreated empty vector control and the values were averaged across biological replicates. Error bars represent standard error of the mean. The relative effect of four independent shRNAs on cell growth in LNCaP, C42, and Rv1 cells in the absence or presence of 0.05 nM R1881, n=3. FIG. 5D plots the data for the relative effect of HULLK overexpression on cell growth in LNCaP, C42, and Rv1 cells in the absence or presence of 0.05 nM R1881, n=3. Statistical analysis was performed using ANOVA and Tukey test.
# CyQuant Growth Assays: Assay was performed as previously described (18). Briefly, shRNA or pLKO control virus was added to 1 μg/ml fibronectin-coated 96 well plates. Cells were plated in RPMI-1640 plus 5% CSS with vehicle, 0-0.05 nM R1881, and/or 10 μM Enzalutamide (Selleck Chemicals). Quantification was performed on Day 7 using a BioTek Synergy 2 plate reader.
# To explore the functional role of HULLK in PCa, the effects of HULLK knockdown on PCa cell growth was examined. LNCaP, C4-2, and Rv1 cells were transduced with lentiviral particles expressing four independent shRNAs specific for LCK or pLKO empty vector control in the presence or absence of 0.05 nM R1881. Two shRNAs were targeting the carboxy-terminal of LCK (shLCK-3 and shLCK-4) and should decrease HULLK levels; and two shRNAs were directed toward the amino-terminal (shLCK-1 and shLCK-2) and should not affect HULLK expression (FIG. 5A). […] As a control, all four shRNAs efficiently knocked LCK down 60-90% in Jurkat cells. Seven days following viral transduction, cellular growth was measured using CyQuant, which uses DNA content as a surrogate for cell number. In the absence of hormone, the four shRNAs had no dramatic effects on growth in LNCaP or C4-2 cells (FIG. 5C).
# The complement experiment of evaluating the effects of overexpressing HULLK on cell growth was also performed. LNCaP, C4-2, and Rv1 cells were transduced with lentivirus expressing either vector or HULLK constructs in the presence or absence of 0.05 nM R1881, and proliferation was calculated seven days following viral transduction.
# AR = AR protein and message levels 48 hrs after HULLK knockdown or overexpression; conditions: LNCaP and C4-2 cells; 48 hrs after transduction
# Experimental: LNCaP and C4-2 cells were transduced with vector, shLCK (n-term), or shLCK (c-term) in the appropriate growth media, and whole cell lysates were collected 48 hrs later and blotted for AR21 and ERK1/2, n=3. […] LNCaP and C4-2 cells were transduced with vector or HULLK in the appropriate growth media, and whole cell lysates were collected 48 hrs later and blotted for AR21 and α-tubulin, n=3. RNA was collected and AR transcript levels were determined using AR primers targeting the DNA binding domain, n=3.
# Conversely, studies were conducted to determine whether HULLK modulates AR expression. LNCaP and C4-2 cells were transduced with vector, HULLK, or shRNAs targeting LCK (n-term) (FL-LCK) or LCK (c-term) (HULLK), and AR protein and message levels were examined 48 hrs after transduction.
# p53 = assay: Western blot after proteasome inhibition with MG132; conditions: LNCaP cells; 10 μM MG132
# Experimental: (§2) FIGS. 1A to 1D illustrate the discovery of a novel lncRNA in prostate cancer cells. […] LCK protein was immunoprecipitated from 1 mg cell lysate from LNCaP, C4-2, and Jurkat cells cultured in the appropriate growth media for 48 hrs and treated with 1 nM R1881 or starved of hormone for 24 hrs, separated by 10% SDS-PAGE, and immunoblotted with LCK antibodies targeting the amino- and carboxy-terminals. Representative blots are shown, n=3. […] LNCaP cells were seeded and treated with 10 μM MG132 in the presence or absence of R1881 for the indicated timepoints. Cell lysates were blotted for LCK (c-terminal), LCK (n-terminal), p53, ERK1/2, Ran, and Histone H3. Representative blots are shown, n=3. Representative gel is shown, n=3. LNCaP cells were grown in the absence or presence of 1 nM R1881 for 24 hrs. RNA was collected using the Qiagen RNeasy kit. […]
# (§3) To determine whether the lack of LCK expression was due to proteasomal degradation, LCK protein levels were examined in the presence of the proteasome inhibitor MG132 (FIG. 18). […] Furthermore, no truncated forms of LCK were detected when the whole western blot membrane was probed from 75 kD to 10 kD with either c- or n-terminal LCK antibodies. […] Therefore, a ncRNA may play a role in the growth effects measured in the kinome screen.
# LCK protein = assay: Western blot for LCK protein after proteasome inhibition with MG132; conditions: LNCaP cells treated with FBS, CSS, or 1 nM R1881; 10 μM MG132; any timepoint
# Experimental: as §2, §3
# [2] = test system: PSA and TMPRSS2 transcripts; assay: qPCR of PSA and TMPRSS2 transcripts to verify efficacy of p300 inhibition; conditions: 0.3 μM A-485 + 1 nM R1881
# Experimental: as §1, with “inhibition. […]” for “inhibition.”
molecule,measurement,setting,value
Cc1sc2c(c1C)C(c1ccc(Cl)cc1)=N[C@@H](CC(=O)OC(C)(C)C)c1nnc(C)n1-2 [JQ1],HULLK expression in the presence of hormone and JQ1 compared to hormone alone,"HULLK; 0.1 μM JQ1 + 1 nM R1881, 24 hrs",significantly decreased
"HULLK: Hormone Upregulated lncRNA within LCK, overexpressed from lentiviral expression vector PLX301",proliferation of HULLK-overexpressing cells compared to vector control cells,"[1]; 0.05 nM R1881, LNCaP, C4-2, and Rv1 cells",significantly increased proliferation
same,growth of HULLK-overexpressing cells versus vector-expressing cells,"[1]; androgen-deprived media, LNCaP, C4-2, and Rv1 cells",did not provide a growth advantage
same,AR expression after overexpression of HULLK,AR,not notably altered
"shLCK-4: shRNA targeting the carboxy-terminal of LCK (HULLK), nucleotide sequence SEQ ID NO: 26 (CCGGTCACATGGCCTATGCACATATCTCGAGATATGTGCATAGGCCATGTGATTTTTG)",effect on cell growth,[1],statistically significant decrease
CC(C)C[C@@H](C=O)NC(=O)[C@H](CC(C)C)NC(=O)[C@H](CC(C)C)NC(=O)OCc1ccccc1 [MG132] (Cbz-Leu-Leu-Leu-aldehyde),p53 protein level,p53,elevated
same,LCK protein detection,LCK protein,still not observed
CNC(=O)Nc1ccc2c(c1)CC[C@@]21OC(=O)N(CC(=O)N(Cc2ccc(F)cc2)[C@@H](C)C(F)(F)F)C1=O [A-485],effect on hormone-induced increase in HULLK transcript levels,"HULLK; 0.3 μM A-485 + 1 nM R1881, 24 hrs",significantly opposed the hormone-induced increase
same,"effect on HULLK expression, inhibitor alone","HULLK; 0.3 μM A-485 without R1881, LNCaP, C4-2, Jurkat cells",negligible effects
same,PSA and TMPRSS2 message in the presence of hormone and p300 inhibitor,[2],sufficiently blocking its target
CNC(=O)c1ccc(N2C(=S)N(c3ccc(C#N)c(C(F)(F)F)c3)C(=O)C2(C)C)cc1F [Enzalutamide],effect on hormone-mediated increase in LCK 3'UTR transcript (HULLK),"HULLK; LNCaP and C4-2 cells, 1 nM R1881 + 10 μM enzalutamide, 24 hrs",blocked the hormone-mediated increase; also recorded: blocks the androgen-induced expression of HULLK
"shLCK-3: shRNA targeting the carboxy-terminal of LCK (HULLK), nucleotide sequence SEQ ID NO: 25 (CCGGGGGATCCTGCTGACGGAAATTCTCGAGAATTTCCGTCAGCAGGATCCCTTTTTG)",effect on cell growth,[1],statistically significant decrease
